In data set [1] the test system is periodontal ligament fibroblasts (PDLF). The data set can be described thus: In vitro periodontal pocket model, migration of PDLF out of donor compartment. The data set is classed as cell-based, human. The note with it: P11-4 20 mg/ml, all others 15 mg/ml. As for the experimental part: FIG. 6: Cell migration of a 15 mg/ml P11-4 gel on a periodontal ligament model after 8 days of incubation. Human Periodontal Ligament cells were placed in a cell pool (A) and the SAP gel (C) placed on the human dentin (B). The cell/SAP-gel/dentin was then incubated for 8 days and visually assessed resulting in migration of up to 5 mm. Scale bar: 1 mm
An in vitro model of a periodontal pocket (Meyer et al., 2016) was used to assess the migration distance of periodontal ligament fibroblasts (PDLF) out of the donor compartment. In brief, to determine early processes of tissue healing, three endpoints were investigated: Adhesion, proliferation and migration of human primary periodontal ligament fibroblasts (PDLF, ScienCell). In order to mimic the in vivo conditions as close as possible, pure bovine dentin surface served as underlying structure. Adhesion and proliferation of PDLF was assessed in a time dependent manner using ATP viability Kit (Promega). Visualization of the cells on the matrix was realized by SEM. For evaluation of cell adhesion and proliferation, Emdogain® (Straumann) was used as a positive control, as it has already proven its efficacy to promote periodontal regeneration in vivo. […]
PDLF cells were allowed to migrate in different SAP or collagen hydrogels (P11-4: 20 mg/ml; all others 15 mg/ml), as explained in Example L. Migration distances were analyzed after 4 and 8 days. […]

Data set [2] relates to PDLF cells. The data set can be described thus: Stability of SAP matrices in contact with PDLF cells or medium (peptide in supernatant, UV-spectroscopy). To be noted: 20 mg/ml P11-4, 15 mg/ml others; 2000 PDLF cells/well or medium; 24 h. The data set is classed as cell-based. The protocol: Different SAP hydrogels or matrices (20 mg/ml for P11-4; 15 mg/ml for […]) were contacted with 2000 PDLF cells/well or medium. Degradation was measured after 24 h by detection of peptide concentration in the supernatant by UV-spectroscopy. No significant effect of the cells was seen.

Data set [3] in a line: Mechanical properties (G′) of SAP gels in different ions and buffer systems. The data set is classed as physicochemical. As for the experimental part: FIG. 5: Mechanical properties are dependent on the presence of different ions and buffer systems. […] Since NO3− are monovalent ions, and ionic strength of the solution was below 130 mM, P11-8 self-assembling was slowed down. On the other hand self-assembling kinetic of P11-8 with DMEM and NaCl solution is very similar.

Data set [4] relates to SAOS-2 cells (Sarcoma osteogenic). The data set can be described thus: Cell viability on SAP hydrogels compared to Emdogain (PrestoBlue). The data set is classed as cell-based. The protocol:
(§1) Left column 15 mg/ml SAP, middle column: 20 mg/ml SAP, right column 30 mg/ml SAP for each SAP, for Emdogain®, the concentration is constant at 30 mg/ml, and the three columns show 24, 48 and 96 h administration. […] Collagen (1.5 mg/ml) was used as a test system control. Cell proliferation was measured by the metabolic conversion of PrestoBlue viability reagent. Data were normalized in respect to values measured at day 1.
(§2) Proliferation of hPDLF (periodontal ligament fibroblasts) and SAOS-2 (Sarcoma osteogenic) cells on self-assembling peptides (P11-4, P11-8, P11-13 and P11-14, 15 mg/ml SAP, 20 mg/ml SAP, 30 mg/ml SAP respectively) was compared to the current gold standard Emdogain® and/or collagen after 24, 48 and 96 h. For Emdogain®, the concentration is constant at 30 mg/ml. Viability was measured by PrestoBlue® Cell Viability Reagent A13261.

Data set [5] deals with hPDLF cells (human periodontal ligament fibroblasts). The description is as above. The data set is classed as cell-based. To be noted: all concentrations tested (15, 20, 30 mg/ml SAP); 24, 48, 96 h; Emdogain 30 mg/ml. The protocol:
as §1, §2

The subject of data set [6] is S. sanguinis. Kind of data set: Release of antibiotics from self-assembling peptide gels, bacterial growth by turbidity OD600. The data set is classed as cell-based. The note with it: antibiotic 150 mg/ml in SAP gels 15 mg/ml (P11-4, P11-13/14, P11-28/29); OD600 normalized to gel without antibiotic; over 120 hours. As for the experimental part: (§3) FIG. 1: Bacterial density after release of antibiotics (150 mg/ml) from self-assembling peptide gels (15 mg/ml), and the impact thereof to the growth of P. gingivalis (A-C) and S. sanguinis (D-F). Circles: metronidazol, stars: tetracycline, triangle: ciprofloxacin, squares: doxycycline hyclate; control: gel without API
(§4) Hydrogels comprising self-assembling peptides with (150 mg/ml) and without antibiotics were formed by dissolving the respective peptides at a concentration of 15 mg/ml or equimolar for combination SAP in a concentration of −10 mg*ml-1 as follows:
(§5) For the gels formed by peptides P11-13 and P11-14: or for P11-28 and P11-29, equimolar solutions of peptides were prepared in a well plate, and pH corrected to physiological conditions, resulting in a gel.
(§6) Furthermore 100 uL/well of a defined anaerobic P. gingivalis or aerobic S. anguines bacterial culture (10^7 CFU/ml e.g. 990 μl BHI medium, 10 μl 10^8 CFU/ml bacteria suspension) were added onto the gels. Impact on growth was assessed by measuring turbidity at OD600 nm. Data obtained with antibiotics were normalized to control (gel+bacteria+medium without antibiotics) to analyse the relative bacterial density. 50 μl/well of medium were added every second day.

For data set [7], the system named is P. gingivalis. Described as above. The data set is classed as cell-based. The note with it: antibiotic 150 mg/ml in SAP gels 15 mg/ml (P11-4, P11-13/14, P11-28/29); OD600 normalized to gel without antibiotic; over 120 hours. As for the experimental part:
as §3, §4, §5, §6

Data set [8] is described as follows: Self-assembly at neutral pH, visual appearance. The data set is classed as physicochemical. The note with it: 1 part RADA16 solution (1 wt % in water) added to 1 part DMEM, neutral pH 7.

Where no end group is shown, it is not given here. [ ]: non-standard residue; d: D form. Orn = NCCC[C@H](N)C(=O)O

Consider “QQRFOWOFEQQ (QQRF[Orn]W[Orn]FEQQ) [P11-8, self-assembling peptide]”, for which the “homogenous migration of PDLF cells, visually” value in data set [1] is recorded as “most obvious”. For the same compound, in data set [1] (after 4 days), the “migration distance of PDLF cells compared to collagen” value is given as “slightly increased compared to collagen”. The “degradation (peptide concentration in the supernatant)” value in data set [2] is listed as “degraded slightly more than the other SAP”. In addition, in data set [3] (DMEM pH 7.4 versus Tris-NaCl), the “storage modulus G′ / self-assembling kinetic of gel” value was “very similar”. Further, the “storage modulus G′ of gel” value in data set [3] (artificial saliva (Tris 120 mM, Ca(NO3) 4 mM, KH2PO4 2.4 mM, pH 7.2) versus Tris-NaCl, DMEM, Tris MgSO4) is recorded as “lowest storage modulus was achieved with artificial saliva”. In addition, the “cell viability compared to Emdogain” value in data set [4] (30 mg/ml SAP) is recorded as “strongly increased”; in data set [4] (the other concentrations (15, 20 mg/ml SAP)), “slightly increased or about equal”; in data set [5], “increased cell viability of hPDLF cells compared to Emdogain®”.
As to `Cc1ncc([N+](=O)[O-])n1CCO` [metronidazole], the “impact of antibiotic released from SAP gel on bacterial growth (relative bacterial density)” value in data set [6] and in data set [7] was “low effectivity in most systems at this concentration” throughout.
As to RADA16, in data set [8], the self-assembly entry is listed as “No self-assembling is visible”.

Values taken from patent publication US12280087B2, “Composition comprising self-assembling peptides for use in treatment of gingivitis, periodontitis and/or peri-implantitis” (Credentis AG, priority 2016, dated 2025).
